Data from patent publication US7666994B2, “Cloning and expression of gonadotropin-releasing hormone (GnRH) receptors” (University of New Hampshire, priority 2004, dated 2010).
Ends that are not written are not given here.

Tests used:
[1] = system: lamprey GnRH receptor transcript; assay: Transcriptional regulation of the GnRH receptor transcript by lamprey GnRH-III (RT-PCR, densitometry normalized to β-actin); assay type: in vivo, adult male lamprey
Experimental: Forty adult male lamprey's were injected intraperitoneally, twenty (20) with lamprey GnRH-III (200 μL of 0.45 μg/μL lamprey GnRH-III in 0.6% saline) and twenty (20) with control (200 μL of 0.6% saline). Ten (10) fish from each treatment group were sacrificed 24 hours after injection, and brains, pituitaries, kidneys, and testes were dissected and frozen in liquid nitrogen. Forty-eight hours after the first injection, the remaining animals were injected a second time with the same treatment they originally received. Twenty-four hours after the second injection, all remaining animals were sacrificed and tissues dissected and snap frozen. Total RNA was isolated from all tissues using Tri-Reagent (Molecular Research Center, Inc.), treated with RQ1 DNase (PROMEGA), and used as template for RT-PCR with the AccessQuick RT-PCR system (PROMEGA) using the same conditions as above, except 50 ng of template was used per reaction. Reactions were electrophoresed and visualized in 2% agarose gels. Parallel reactions were performed using primers to β-actin as a positive control. Receptor bands were normalized to β-actin and densitometry was performed using a Molecular Imager FX (BioRad, Hercules, Calif.) to determine effects of lamprey […] injection.

[2] = system: incubated hemipituitaries of male rats; settings: cited from earlier work
lamprey GnRH receptor [3] = assay: Inositol phosphate (IP) assay in COS7 cells transiently transfected with the lamprey GnRH receptor; assay type: cell-based, sea lamprey, Petromyzon marinus; settings: for IP response on stimulation of transiently transfected COS7 cells: in words; for LogEC50, IP accumulation: mean±SEM, n=3, COS7 cells transiently transfected with lamprey GnRH receptor, 10^-6M to 10-11 M, 1 hour at 37° C.; for IP accumulation in cells transfected with blank pcDNA3.1 vector: negative control cells without receptor, data not shown
Experimental: (§1) The coding region of the lamprey GnRH-R was inserted into the pcDNA3.1 HisTOPO mammalian expression vector (Carlsbad, Calif.) (INVITROGEN, Carlsbad, Calif.). COS7 cells were cultured in 10% fetal bovine serum (FBS) in Dulbeccos Modified Eagles Medium (DMEM) (INVITROGEN), and were maintained at 37° C. in 5% CO 2. The day before transfection, 5×10^5 cells were seeded in 60 mm culture plates. Transfection was performed using 5 μg of vector and 15 μL of Lipofectamine (INVITROGEN) in 2.4 mL total volume in Opti-MEM-I (Invitrogen) and an incubation time of 5 hours at 37° C. in 5% CO 2, after which, 2.5 mL of 20% FBS in DMEM was added and cultures were grown overnight.
(§2) Twenty-four hours after transfection (day 2), cells were trypsinized and 96-well plates were seeded with 5×10^4 cells/well, and cultures were grown overnight. Day 3, cells were stimulated with either control (ID buffer −1.0 mM 3-isobutyl-1-methylxanthine in DMEM) or varying concentrations (10^-10M to 10^-4M) of either lamprey GnRH-I or lamprey GnRH-III (in ID buffer). cAMP assays were performed using the BIOTRAK Enzymeimmunoassay system (AMERSHAM), per the manufacturers instructions. Treatments were performed in triplicate in three independent experiments, while cells transfected with blank vector were used as negative controls. Analyses were performed using GRAPHPAD (Prism, San Diego, Calif.). Inositol Phosphate Assay The inositol phosphate (IP) stimulation and extraction protocol used was adapted from previous studies. Briefly, 24 hours after transfection, cells were trypsinized, and seeded in 12-well plates at approximately 1.5×10^5 cells/well. At hour 72 cells were washed in PBS and incubated in 1 mL of 2% dialyzed fetal bovine serum and 2 μCi/mL myo […] inositol (AMERSHAM) in medium 199 (INVITROGEN). At hour 96 cells were washed 2 times with IP buffer (1×HBSS, 20 mM HEPES, 20 mM LiCL), and were pre-incubated in IP buffer for 15 minutes at 37° C., followed by stimulation with concentrations of lamprey GnRH-I or lamprey GnRH III, in IP buffer, ranging from 10^-6M to 10-11 M, for 1 hour at 37° C. with gentle shaking. The reactions were stopped with the addition of 0.2 mL of pre-chilled 20% perchloric acid, and the plates were placed on ice for 30 minutes. The wells were scraped and the extracts were transferred to sterile 1.5 mL tubes and neutralized with 5M KOH, followed by a 1 hour incubation at 4° C. Tubes were centrifuged at 5,000 rpm at 4° C. for 15 minutes, and 1.2 mL of supernatant was transferred to a new sterile 1.5 mL tube. IPs (IP, IP2 and IP3) were isolated by ion exchange chromatography using AGlX8-200 resin (Bio-Rad) in formate form. IPs were eluted with 1 M ammonium formate/0.1 M formic acid, samples were counted by liquid scintillation and data were analyzed using Prism (GRAPHPAD). Treatments were performed in triplicate in three independent experiments, and cells transfected with blank vector and non-transfected cells were used as negative controls.

lamprey GnRH receptor [4] = assay: cAMP assay in COS7 cells transiently transfected with the lamprey GnRH receptor; assay type: cell-based, sea lamprey, Petromyzon marinus; settings: for cAMP response on stimulation of transiently transfected COS7 cells: in words; for LogEC50, cAMP accumulation: mean±SEM, n=3, COS7 cells transiently transfected with lamprey GnRH receptor, 10^-10M to 10^-4M; for cAMP accumulation in cells transfected with blank pcDNA3.1 vector: negative control cells without receptor, data not shown
Experimental: as §1, §2

[5] = after both one and two injections, densitometry normalized to β-actin, N=10
[6] = relative to lamprey GnRH-I, one statement for both signaling systems

Chain of lamprey GnRH receptor (as listed by the source): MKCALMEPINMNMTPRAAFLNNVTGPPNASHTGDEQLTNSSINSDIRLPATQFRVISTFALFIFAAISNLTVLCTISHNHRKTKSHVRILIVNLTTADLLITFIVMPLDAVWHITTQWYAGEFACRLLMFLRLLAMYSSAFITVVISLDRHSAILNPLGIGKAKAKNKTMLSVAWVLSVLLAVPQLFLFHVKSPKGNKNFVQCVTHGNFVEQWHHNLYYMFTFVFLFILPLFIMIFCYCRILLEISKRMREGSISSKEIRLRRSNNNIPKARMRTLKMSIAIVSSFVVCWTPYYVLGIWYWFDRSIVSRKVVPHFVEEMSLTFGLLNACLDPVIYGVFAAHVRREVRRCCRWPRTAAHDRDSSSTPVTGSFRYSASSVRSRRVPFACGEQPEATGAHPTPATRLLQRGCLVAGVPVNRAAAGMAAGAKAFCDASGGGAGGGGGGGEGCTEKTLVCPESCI

| Substance | receptor transcript regulation in pituitary compared to control [1, 5] | receptor transcript regulation in testes compared to control [1, 5] | receptor transcript bands in pituitary versus control ([1]; after one injection, intraperitoneal, 24 hours after injection) | GnRH receptor transcript level in testes versus control ([1]; after one injection, intraperitoneal, 24 hours after injection, control testes high levels) | receptor transcript expression in brain ([1]; after one or two injections) | effects on receptor transcript in pituitary and testes after two injections, relative to one injection ([1]; two injections 48 hours apart, 24 hours after second injection) | FSH-releasing action [2] | IP response on stimulation of transiently transfected COS7 cells (lamprey GnRH receptor [3]) | LogEC50, IP accumulation (lamprey GnRH receptor [3]) | IP accumulation in cells transfected with blank pcDNA3.1 vector (lamprey GnRH receptor [3]) | logEC50 fold lower than that of lamprey GnRH-I, IP system (lamprey GnRH receptor [3]; [6]) | cAMP response on stimulation of transiently transfected COS7 cells (lamprey GnRH receptor [4]) | LogEC50, cAMP accumulation (lamprey GnRH receptor [4]) | cAMP accumulation in cells transfected with blank pcDNA3.1 vector (lamprey GnRH receptor [4]) | logEC50 fold lower than that of lamprey GnRH-I, cAMP system (lamprey GnRH receptor [4]; [6]) | LH-releasing action [2] |
| --- | --- | --- | --- | --- | --- | --- | --- | --- | --- | --- | --- | --- | --- | --- | --- | --- |
| lamprey GnRH-III: hypothalamic lamprey GnRH isoform (decapeptide), Tyr instead of Trp in the third position | up-regulated | down-regulated | twice as bright as control | barely detectable levels | not induced | considerably lesser degree | potent, dose-related | dose dependant responses | −9.37±0.243 | no response | 40-50 fold | dose dependant responses | −8.29±0.090 | no response | 40-50 fold | – |
| lamprey GnRH-I: one of two hypothalamic GnRH isoforms (decapeptide) identified in the brain of the lamprey (QHYSLEWKPG; ends and bridges not checked) | – | – | – | – | – | – | little activity | dose dependant responses | −8.10±0.150 | no response | – | dose dependant responses | −6.57±0.150 | no response | – | little activity |
